According to ChEMBL document CHEMBL3045816, “Synthesis and antimicrobial screening of 5-(benzylidene)-3-phenylthiazolidin-4-one derivatives incorporating thiazole ring” (Med Chem Res, 2013):
≈ marks a conversion by molar mass, not a printed value.

Key:
Pseudomonas aeruginosa = assay: Antimicrobial activity against Pseudomonas aeruginosa MTCC 1688 assessed as growth inhibition after 24 hr by turbidimetric method; assay type: functional; conditions: MTCC 1688, 24 h
Aspergillus niger = assay: Antimicrobial activity against Aspergillus niger MTCC 282 assessed as growth inhibition after 48 hr; assay type: functional; conditions: MTCC 282, 48 h
Escherichia coli = assay: Antimicrobial activity against Escherichia coli MTCC 443 assessed as growth inhibition after 24 hr by turbidimetric method; assay type: functional; conditions: MTCC 443, 24 h
Aspergillus clavatus = assay: Antimicrobial activity against Aspergillus clavatus MTCC 1323 assessed as growth inhibition after 48 hr; assay type: functional; conditions: MTCC 1323, 48 h
Candida albicans = assay: Antimicrobial activity against Candida albicans MTCC 227 assessed as growth inhibition after 48 hr; assay type: functional; conditions: MTCC 227, 48 h
HepG2 = assay: Cytotoxicity against Homo sapiens (human) HepG2 cells by SRB assay; assay type: cell-based
A549 = assay: Cytotoxicity against Homo sapiens (human) A549 cells by SRB assay; assay type: cell-based
Streptococcus pyogenes = assay: Antimicrobial activity against Streptococcus pyogenes MTCC 442 assessed as growth inhibition after 24 hr by turbidimetric method; assay type: functional; conditions: MTCC 442, 24 h
HL-60 = assay: Cytotoxicity against Homo sapiens (human) HL60 cells by SRB assay; assay type: cell-based
Staphylococcus aureus = assay: Antimicrobial activity against Staphylococcus aureus MTCC 96 assessed as growth inhibition after 24 hr by turbidimetric method; assay type: functional; conditions: MTCC 96, 24 h

| SMILES | MIC (Pseudomonas aeruginosa) | MIC (Aspergillus niger) | MIC (Escherichia coli) | MIC (Aspergillus clavatus) | MIC (Candida albicans) | Activity (HepG2) | Activity (A549) | MIC (Streptococcus pyogenes) | Activity (HL-60) | MIC (Staphylococcus aureus) |
| --- | --- | --- | --- | --- | --- | --- | --- | --- | --- | --- |
| COc1ccc(C(=O)Nc2nc(C)c(C(=O)N/N=C3\S/C(=C\c4ccccc4OC)C(=O)N3c3ccccc3)s2)cc1 | 100 µg/mL (≈ 167 µM) | 100 µg/mL (≈ 167 µM) | 250 µg/mL (≈ 417 µM) | 100 µg/mL (≈ 167 µM) | 100 µg/mL (≈ 167 µM) | Non-toxic | Non-toxic | 100 µg/mL (≈ 167 µM) | Non-toxic | 100 µg/mL (≈ 167 µM) |
| COc1ccc(C(=O)Nc2nc(C)c(C(=O)N/N=C3\S/C(=C\c4ccccc4)C(=O)N3c3ccccc3)s2)cc1 | 500 µg/mL (≈ 878 µM) | 500 µg/mL (≈ 878 µM) | 250 µg/mL (≈ 439 µM) | 500 µg/mL (≈ 878 µM) | 500 µg/mL (≈ 878 µM) | – | – | 250 µg/mL (≈ 439 µM) | – | 500 µg/mL (≈ 878 µM) |
| COc1ccc(C(=O)Nc2nc(C)c(C(=O)N/N=C3\S/C(=C\c4ccc([N+](=O)[O-])cc4)C(=O)N3c3ccccc3)s2)cc1 | 500 µg/mL (≈ 813 µM) | 500 µg/mL (≈ 813 µM) | 250 µg/mL (≈ 407 µM) | 500 µg/mL (≈ 813 µM) | 500 µg/mL (≈ 813 µM) | – | – | 500 µg/mL (≈ 813 µM) | – | 500 µg/mL (≈ 813 µM) |
| COc1ccc(C(=O)Nc2nc(C)c(C(=O)N/N=C3\SCC(=O)N3c3ccccc3)s2)cc1 | 500 µg/mL (≈ 1040 µM) | 1000 µg/mL (≈ 2080 µM) | 250 µg/mL (≈ 519 µM) | 250 µg/mL (≈ 519 µM) | 1000 µg/mL (≈ 2080 µM) | – | – | 500 µg/mL (≈ 1040 µM) | – | 500 µg/mL (≈ 1040 µM) |
| COc1ccc(C(=O)Nc2nc(C)c(C(=O)N/N=C3\S/C(=C\c4ccc(C)cc4)C(=O)N3c3ccccc3)s2)cc1 | 50 µg/mL (≈ 85.7 µM) | 25 µg/mL (≈ 42.8 µM) | 12.5 µg/mL (≈ 21.4 µM) | 25 µg/mL (≈ 42.8 µM) | 100 µg/mL (≈ 171 µM) | Non-toxic | Non-toxic | 50 µg/mL (≈ 85.7 µM) | Non-toxic | 50 µg/mL (≈ 85.7 µM) |
| COc1ccc(C(=O)Nc2nc(C)c(C(=O)N/N=C3\S/C(=C\c4cccc(O)c4)C(=O)N3c3ccccc3)s2)cc1 | 100 µg/mL (≈ 171 µM) | 250 µg/mL (≈ 427 µM) | 100 µg/mL (≈ 171 µM) | 100 µg/mL (≈ 171 µM) | 500 µg/mL (≈ 854 µM) | – | – | 250 µg/mL (≈ 427 µM) | – | 100 µg/mL (≈ 171 µM) |
| COc1ccc(C(=O)Nc2nc(C)c(C(=O)NNC(=S)Nc3ccccc3)s2)cc1 | 500 µg/mL (≈ 1130 µM) | 1000 µg/mL (≈ 2260 µM) | 500 µg/mL (≈ 1130 µM) | > 1000 µg/mL | 1000 µg/mL (≈ 2260 µM) | – | – | 500 µg/mL (≈ 1130 µM) | – | 500 µg/mL (≈ 1130 µM) |
| O=C(O)c1cn(C2CC2)c2cc(N3CCNCC3)c(F)cc2c1=O [CIPROFLOXACIN] | – | – | 25 µg/mL (≈ 75.4 µM) | – | – | – | – | 50 µg/mL (≈ 151 µM) | – | 50 µg/mL (≈ 151 µM) |
| COc1ccc(C(=O)Nc2nc(C)c(C(=O)N/N=C3\S/C(=C\c4ccc(Cl)cc4)C(=O)N3c3ccccc3)s2)cc1 | 500 µg/mL (≈ 828 µM) | 500 µg/mL (≈ 828 µM) | 500 µg/mL (≈ 828 µM) | 500 µg/mL (≈ 828 µM) | 500 µg/mL (≈ 828 µM) | – | – | 500 µg/mL (≈ 828 µM) | – | 250 µg/mL (≈ 414 µM) |
| COc1ccc(C(=O)Nc2nc(C)c(C(=O)N/N=C3\S/C(=C\c4cccc(OC)c4)C(=O)N3c3ccccc3)s2)cc1 | 250 µg/mL (≈ 417 µM) | 250 µg/mL (≈ 417 µM) | 50 µg/mL (≈ 83.4 µM) | 250 µg/mL (≈ 417 µM) | 500 µg/mL (≈ 834 µM) | – | – | 250 µg/mL (≈ 417 µM) | – | 250 µg/mL (≈ 417 µM) |
| COc1ccc(/C=C2\S/C(=N\NC(=O)c3sc(NC(=O)c4ccc(OC)cc4)nc3C)N(c3ccccc3)C2=O)cc1 | 50 µg/mL (≈ 83.4 µM) | 100 µg/mL (≈ 167 µM) | 25 µg/mL (≈ 41.7 µM) | 50 µg/mL (≈ 83.4 µM) | 50 µg/mL (≈ 83.4 µM) | Non-toxic | Non-toxic | 50 µg/mL (≈ 83.4 µM) | Non-toxic | 100 µg/mL (≈ 167 µM) |
| COc1ccc(C(=O)Nc2nc(C)c(C(=O)N/N=C3\S/C(=C\c4ccc(F)cc4)C(=O)N3c3ccccc3)s2)cc1 | 250 µg/mL (≈ 425 µM) | 250 µg/mL (≈ 425 µM) | 500 µg/mL (≈ 851 µM) | 500 µg/mL (≈ 851 µM) | 500 µg/mL (≈ 851 µM) | – | – | 250 µg/mL (≈ 425 µM) | – | 500 µg/mL (≈ 851 µM) |
| COc1ccc(C(=O)Nc2nc(C)c(C(=O)N/N=C3\S/C(=C\c4ccccc4C)C(=O)N3c3ccccc3)s2)cc1 | 25 µg/mL (≈ 42.8 µM) | 100 µg/mL (≈ 171 µM) | 25 µg/mL (≈ 42.8 µM) | 100 µg/mL (≈ 171 µM) | 100 µg/mL (≈ 171 µM) | Non-toxic | Non-toxic | 100 µg/mL (≈ 171 µM) | Non-toxic | 250 µg/mL (≈ 428 µM) |
| COc1ccc(C(=O)Nc2nc(C)c(C(=O)N/N=C3\S/C(=C\c4ccc(O)cc4)C(=O)N3c3ccccc3)s2)cc1 | 250 µg/mL (≈ 427 µM) | 100 µg/mL (≈ 171 µM) | 50 µg/mL (≈ 85.4 µM) | 250 µg/mL (≈ 427 µM) | 250 µg/mL (≈ 427 µM) | Non-toxic | Non-toxic | 250 µg/mL (≈ 427 µM) | Non-toxic | 50 µg/mL (≈ 85.4 µM) |
| COc1ccc(C(=O)Nc2nc(C)c(C(=O)N/N=C3\S/C(=C\c4ccccc4[N+](=O)[O-])C(=O)N3c3ccccc3)s2)cc1 | 250 µg/mL (≈ 407 µM) | 250 µg/mL (≈ 407 µM) | 500 µg/mL (≈ 813 µM) | 250 µg/mL (≈ 407 µM) | 1000 µg/mL (≈ 1630 µM) | – | – | 250 µg/mL (≈ 407 µM) | – | 500 µg/mL (≈ 813 µM) |
| COc1ccc(C(=O)Nc2nc(C)c(C(=O)N/N=C3\S/C(=C\c4cccc(C)c4)C(=O)N3c3ccccc3)s2)cc1 | 250 µg/mL (≈ 428 µM) | 250 µg/mL (≈ 428 µM) | 100 µg/mL (≈ 171 µM) | 250 µg/mL (≈ 428 µM) | 250 µg/mL (≈ 428 µM) | – | – | 100 µg/mL (≈ 171 µM) | – | 250 µg/mL (≈ 428 µM) |
| COc1ccc(C(=O)Nc2nc(C)c(C(=O)N/N=C3\S/C(=C\c4ccccc4Cl)C(=O)N3c3ccccc3)s2)cc1 | 250 µg/mL (≈ 414 µM) | 250 µg/mL (≈ 414 µM) | 250 µg/mL (≈ 414 µM) | 250 µg/mL (≈ 414 µM) | 500 µg/mL (≈ 828 µM) | – | – | 500 µg/mL (≈ 828 µM) | – | 250 µg/mL (≈ 414 µM) |
| COc1ccc(C(=O)Nc2nc(C)c(C(=O)N/N=C3\S/C(=C\c4ccccc4O)C(=O)N3c3ccccc3)s2)cc1 | 250 µg/mL (≈ 427 µM) | 250 µg/mL (≈ 427 µM) | 100 µg/mL (≈ 171 µM) | 250 µg/mL (≈ 427 µM) | 500 µg/mL (≈ 854 µM) | – | – | 100 µg/mL (≈ 171 µM) | – | 250 µg/mL (≈ 427 µM) |
| COc1ccc(C(=O)Nc2nc(C)c(C(=O)NN)s2)cc1 | 1000 µg/mL (≈ 3260 µM) | > 1000 µg/mL | > 1000 µg/mL | 1000 µg/mL (≈ 3260 µM) | 1000 µg/mL (≈ 3260 µM) | – | – | 1000 µg/mL (≈ 3260 µM) | – | > 1000 µg/mL |
| COC1=CC(=O)C[C@@H](C)[C@]12Oc1c(Cl)c(OC)cc(OC)c1C2=O [GRISEOFULVIN] | – | 100 µg/mL (≈ 283 µM) | – | 100 µg/mL (≈ 283 µM) | 500 µg/mL (≈ 1420 µM) | – | – | – | – | – |
